# Test system: IL-1β (interleukin-1beta)
# Experiment: ELISA for IL-1β in LPS-treated HEKa cells
# Format: cell-based, human
# Details: LPS-induced inflammatory condition, 10·M, FIG. 10
# Protocol: ELISA (enzyme-linked immunosorbent assay) for IL-1β (interleukin-1beta) which is very closely related to atopic inflammation and psoriasis was performed.
# As a specific experimental method, HEKa cells (Human Epidermal keratinocytes, adult), human-derived epidermal keratinocytes were seeded on a 24 well plate at a density of 1×10^5 cells, and cultured in an EpiLife medium (1× Human keratinocyte Growth supplement, 1× antibiotics) in an incubator under 37° C. and 5% CO2 for 24 hours.
# After culturing, while an inflammatory condition was induced by treatment with LPS (lipopolysaccharides) in each well, further treatment was performed with Compound 8 of the present invention and the compound of the following Comparative Example at a concentration of 10·M, and then the cells were incubated for a certain period. After completing culturing, media were collected, and then ELISA for IL-1β was carried out, and the results are shown in FIG. 10.
smiles,measurement,value
"O=C(O)CN(CCCCNC(CCCCN(CC(=O)O)CC(=O)O)C(=O)O)CC(=O)O (stereo not shown) [compound of the Comparative Example, reference compound]",cytokine IL-1β secretion level,negligible

# Source: US10617662B2, “Autophagy activation-induced compound for improving skin inflammation for aging” (INCOSPHARM CORPORATION, priority 2017, dated 2020)
